Measured values taken from US10112937B2, “P2X7 modulators and methods of use” (Janssen Pharmaceutica NV, priority 2013, dated 2018).

Tests used:
human P2X7 [1] = molecular target: T1, human P2X7 (Homo sapiens (Human), UniProt Q99572); assay: P2X7 antagonism in human PBMCs (IL-1β release after LPS + Bz-ATP, ELISA); format: cell-based
human P2X7 [2] = molecular target: T1, human P2X7; assay: P2X7 antagonism in human whole blood (IL-1β release after LPS + Bz-ATP, ELISA); format: cell-based; conditions: LPS 30 ng/ml + 1 mM Bz-ATP
Experimental: P2X7 Antagonism in Human Peripheral Blood Mononuclear Cells (PBMCs) and Human Whole Blood.
Human blood was collected using a blood donor program. PBMCs were isolated from blood using a Ficoll density gradient technique. Briefly, blood was laid on Ficoll solution and centrifuged at RT for 20 minutes at 2000 rpm. The buffy layer (between red blood cells and plasma) was carefully collected by aspiration, washed with PBS and centrifuged again at 1500 rpm for 15 minutes. The resulting cell pellet was washed and plated on 96 well-plates for experiments. For the Human Whole Blood experiments, 150 μl of human blood was platted on 96 well-plates. Lipopolysaccharide (LPS) (30 ng/ml) was added to each well and incubated for 1 hour. Test compounds were then added and incubated for 30 minutes. The P2X7 agonist, 2′(3′)-O-(4-benzoylbenzoyl) adenosine 5′ triphosphate (Bz-ATP) was then added at a final concentration of 0.5 mM (PBMC) or 1 mM (blood). Cells were incubated for an additional 1.5 hours. At that point, supernatant was collected and stored for IL-1β assay using manufacturer's protocol for enzyme-linked immunosorbent assay (ELISA). Data was expressed as percent control, where control is defined as the difference in IL-1β release in LPS+Bz-ATP samples and LPS only samples. […] Data are analyzed and graphed on Graphpad Prism 5. […]

human P2X7 [3] = molecular target: T1, human P2X7; assay: Ca2+ flux (FLIPR) in 1321N1 cells expressing recombinant human P2X7; format: cell-based;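 further: cells loaded with Calcium-4 dye, preincubated with test compound for 30 min, fluorescence change read 180 s after agonist addition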
rat P2X7 [4] = molecular target: T2, rat P2X7 (Rattus norvegicus (Rat), UniProt Q64663); assay: Ca2+ flux (FLIPR) in 1321N1 cells expressing recombinant rat P2X7; format: cell-based;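 further: Calcium-4 dye fluorescence change read 180 s after agonist addition, with cells preincubated 30 min with compound and dye in 96-well plates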
T2 sequence (Q64663 whole entry): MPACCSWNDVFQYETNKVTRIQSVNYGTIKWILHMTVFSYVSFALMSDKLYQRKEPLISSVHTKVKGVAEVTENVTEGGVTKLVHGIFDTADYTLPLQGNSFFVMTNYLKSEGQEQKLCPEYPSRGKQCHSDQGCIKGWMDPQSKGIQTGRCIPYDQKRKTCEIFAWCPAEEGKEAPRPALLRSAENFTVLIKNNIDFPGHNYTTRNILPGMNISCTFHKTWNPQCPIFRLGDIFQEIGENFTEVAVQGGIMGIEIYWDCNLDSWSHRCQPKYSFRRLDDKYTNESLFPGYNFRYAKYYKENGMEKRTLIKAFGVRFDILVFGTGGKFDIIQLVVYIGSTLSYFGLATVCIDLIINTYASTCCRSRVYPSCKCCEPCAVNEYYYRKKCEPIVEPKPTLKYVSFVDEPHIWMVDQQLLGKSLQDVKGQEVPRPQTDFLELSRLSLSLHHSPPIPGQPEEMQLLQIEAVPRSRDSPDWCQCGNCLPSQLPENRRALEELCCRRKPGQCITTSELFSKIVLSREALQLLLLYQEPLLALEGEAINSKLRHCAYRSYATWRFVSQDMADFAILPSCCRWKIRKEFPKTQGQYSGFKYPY
Experimental: P2X7 Antagonism in Recombinant Human P2X7 Cells or Recombinant Rat P2X7 Cells: (a) Ca^2+ Flux and (b) Radioligand Binding
1321N1 cells expressing the recombinant human or rat P2X7 channel was cultured in HyQ DME/(HyClone/Dulbecco's Modified Eagle Medium) high glucose supplemented with 10% Fetal Bovine Serum (FBS) and appropriate selection marker. Cells were seeded at a density of 25000 cells/well (96-well clear bottom black walled plates) in 100 μl volume/well. On the day of the experiment, cell plates were washed with assay buffer, containing (in mM): 130 NaCl, 2 KCl, 1 CaCl2, 1 MgCl2, 10 HEPES, 5 glucose; pH 7.40 and 300 mOs. After the wash, cells were loaded with the Calcium-4 dye (Molecular Device) and incubated in the dark for 60 minutes. Test compounds were prepared at 250× the test concentration in neat DMSO. Intermediate 96-well compound plates were prepared by transferring 1.2 μL of the compound into 300 μL of assay buffer. A further 3× dilution occurred when transferring 50 μL/well of the compound plate to 100 μL/well in the cell plate. Cells were incubated with test compounds and dye for 30 minutes. […] The fluorescence change was measured 180 seconds after adding the agonist.

rat P2X7 [5] = molecular target: T2, rat P2X7; assay: Radioligand binding ([3H]A-804598), rat P2X7-1321N1 cell membranes; conditions: rat P2X7-1321N1 membranes, tritiated A-804598
Experimental: (§1) human or rat P2X7-1321N1 cells were collected and frozen @−80° C. On the day of the experiment, cell membrane preparations were made according to standard published methods. […] The assay was terminated by filtration (GF/B filters pre-soaked with 0.3% PEI) and washed with washing buffer (Tris-HCl 50 mM). The IC50 generated in the binding assay was corrected for tracer concentration and affinity of the tracer to derive at the affinity (Ki) of the test compounds. […] For analysis, each concentration point is averaged from triplicate values and the averaged values are plotted on Graphpad Prism.

human P2X7 [6] = molecular target: T1, human P2X7; assay: Radioligand binding ([3H]A-804598), human P2X7-1321N1 cell membranes
Experimental: as §1

[7] = human PBMCs, test compound 10 μM
[8] = 1321N1 cells, recombinant human P2X7, 250 μM BzATP
[9] = 1321N1 cells, recombinant rat P2X7, 250 μM BzATP
[10] = human P2X7-1321N1 membranes, tritiated A-804598
[11] = 10 μM test compound, human PBMCs, LPS + Bz-ATP
[12] = Ca2+ flux, 250 μM BzATP, human P2X7 1321N1 cells
[13] = [3H]A-804598, human P2X7-1321N1 membranes
[14] = Ca2+ flux, 250 μM BzATP, rat P2X7 1321N1 cells

T1 sequence (Q99572 whole entry): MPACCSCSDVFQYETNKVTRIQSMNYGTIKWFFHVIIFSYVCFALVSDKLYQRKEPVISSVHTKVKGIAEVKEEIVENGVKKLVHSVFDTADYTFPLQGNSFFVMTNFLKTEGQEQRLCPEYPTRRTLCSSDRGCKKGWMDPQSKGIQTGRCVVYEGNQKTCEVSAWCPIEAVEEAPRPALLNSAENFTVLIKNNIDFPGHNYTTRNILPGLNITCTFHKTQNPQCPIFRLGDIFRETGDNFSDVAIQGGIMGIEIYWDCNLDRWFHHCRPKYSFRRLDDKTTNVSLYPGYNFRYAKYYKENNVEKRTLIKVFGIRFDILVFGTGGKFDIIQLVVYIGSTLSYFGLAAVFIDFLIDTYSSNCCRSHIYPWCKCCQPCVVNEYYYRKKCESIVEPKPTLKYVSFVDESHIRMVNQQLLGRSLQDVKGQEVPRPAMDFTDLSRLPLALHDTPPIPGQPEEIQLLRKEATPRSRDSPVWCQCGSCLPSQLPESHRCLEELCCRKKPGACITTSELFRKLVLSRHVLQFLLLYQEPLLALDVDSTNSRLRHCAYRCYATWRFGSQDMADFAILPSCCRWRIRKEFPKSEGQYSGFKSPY

| PBMC 10 μM (% control) (human P2X7 [1]; [7]) | IC50 (human P2X7 [2]) | PBMC 10 μM (% control) (human P2X7 [1]; test compound 10 μM, LPS 30 ng/ml + 0.5 mM Bz-ATP) | IC50 (human P2X7 [3]; [8]) | IC50 (rat P2X7 [4]; [9]) | Ki (rat P2X7 [5]) | Ki (human P2X7 [6]; [10]) | PBMC 10 μM (% control) (human P2X7 [1]; [11]) | IC50 (human P2X7 [3]; [12]) | Ki (human P2X7 [6]; [13]) | IC50 (rat P2X7 [4]; [14]) | SMILES |
| --- | --- | --- | --- | --- | --- | --- | --- | --- | --- | --- | --- |
| −3.7 % control | 17 nM |  |  |  |  |  |  |  |  |  | Cc1ccnc(-n2nnc3c2CCN(C(=O)c2cccc(C(F)(F)F)c2Cl)[C@@H]3C)n1 (single isomer, unassigned) [Example 235, (4R*)-(2-Chloro-3-(trifluoromethyl)phenyl)(4-methyl-1-(4-methylpyrimidin-2-yl)-6,7-dihydro-1H-[1,2,3]triazolo[4,5-c]pyridin-5(4H)-yl)methanone] |
| 14.3 % control |  | −3.7 % control | 1.7 nM | 20 nM | 1.6 nM |  |  |  |  |  | C[C@@H]1c2nnn(-c3ncccn3)c2CCN1C(=O)c1cccc(C(F)(F)F)c1F (single isomer, unassigned) [Example 271, (R*)-(2-fluoro-3-(trifluoromethyl)phenyl)(4-methyl-1-(pyrimidin-2-yl)-6,7-dihydro-1H-[1,2,3]triazolo[4,5-c]pyridin-5(4H)-yl)methanone] |
| 0.7 % control |  |  | 2.7 nM | 2.2 nM |  | 7.9 nM |  |  |  |  | C[C@H]1Cc2c(nnn2-c2ccn[nH]2)CN1C(=O)c1cccc(C(F)(F)F)c1F (single isomer, unassigned) [Example 349, (S*)-(2-fluoro-3-(trifluoromethyl)phenyl)(6-methyl-1-(1H-pyrazol-5-yl)-6,7-dihydro-1H-[1,2,3]triazolo[4,5-c]pyridin-5(4H)-yl)methanone] |
| −2.3 % control |  |  | 22.6 nM | 235 nM |  | 39.8 nM |  |  |  |  | Cc1cc(-n2nnc3c2CCN(C(=O)c2ccnc(C(F)(F)F)c2F)[C@@H]3C)ncc1F (single isomer, unassigned) [Example 368, (R*)-(3-fluoro-2-(trifluoromethyl)pyridin-4-yl)(1-(5-fluoro-4-methylpyridin-2-yl)-4-methyl-6,7-dihydro-1H-[1,2,3]triazolo[4,5-c]pyridin-5(4H)-yl)methanone] |
| −2.3 % control |  |  | 4.3 nM | 42.5 nM | 47.3 nM | 17.6 nM |  |  |  |  | Cc1cc(-n2nnc3c2CCN(C(=O)c2ccnc(C(F)(F)F)c2Cl)[C@@H]3C)ncc1F (single isomer, unassigned) [Example 371, (R*)-(3-chloro-2-(trifluoromethyl)pyridin-4-yl)(1-(5-fluoro-4-methylpyridin-2-yl)-4-methyl-6,7-dihydro-1H-[1,2,3]triazolo[4,5-c]pyridin-5(4H)-yl)methanone] |
| 3.8 % control |  |  | 113 nM | 47.4 nM |  | 200 nM |  |  |  |  | C[C@@H]1c2nnn(-c3cccc(C(F)(F)F)n3)c2CCN1C(=O)c1cccc(C(F)(F)F)c1Cl (single isomer, unassigned) [Example 379, (R*)-(2-chloro-3-(trifluoromethyl)phenyl)(4-methyl-1-(6-(trifluoromethyl)pyridin-2-yl)-6,7-dihydro-1H-[1,2,3]triazolo[4,5-c]pyridin-5(4H)yl)methanone] |
| 14.4 % control |  |  | 3.6 nM | 47.3 nM |  | 4 nM |  |  |  |  | Cc1ccnc(-n2nnc3c2CCN(C(=O)c2cccc(Cl)c2Cl)[C@H]3C)n1 (single isomer, unassigned) [Example 392, (S*)-(2,3-dichlorophenyl)(4-methyl-1-(4-methylpyrimidin-2-yl)-6,7-dihydro-1H-[1,2,3]triazolo[4,5-c]pyridin-5(4H)-yl)methanone] |
| 0.9 % control |  |  | 75.7 nM | 2150 nM |  | 115 nM |  |  |  |  | Cc1cc(-n2nnc3c2CCN(C(=O)c2ccnc(C(F)(F)F)c2F)C3C)ncc1F (stereo not drawn) [Example 367, (3-fluoro-2-(trifluoromethyl)pyridin-4-yl)(1-(5-fluoro-4-methylpyridin-2-yl)-4-methyl-6,7-dihydro-1H-[1,2,3]triazolo[4,5-c]pyridin-5(4H)-yl)methanone] |
| −2.2 % control |  |  | 59.7 nM | 256 nM |  | 63.1 nM |  |  |  |  | Cc1cc(-n2nnc3c2CCN(C(=O)c2ccnc(C(F)(F)F)c2Cl)C3C)ncc1F (stereo not drawn) [Example 370, (3-chloro-2-(trifluoromethyl)pyridin-4-yl)(1-(5-fluoro-4-methylpyridin-2-yl)-4-methyl-6,7-dihydro-1H-[1,2,3]triazolo[4,5-c]pyridin-5(4H)-yl)methanone] |
| −0.1 % control |  |  | 78.9 nM | 137 nM |  | 158 nM |  |  |  |  | CC1c2nnn(-c3cccc(C(F)(F)F)n3)c2CCN1C(=O)c1cccc(C(F)(F)F)c1Cl (stereo not drawn) [Example 378, (2-chloro-3-(trifluoromethyl)phenyl)(4-methyl-1-(6-(trifluoromethyl)pyridin-2-yl)-6,7-dihydro-1H-[1,2,3]triazolo[4,5-c]pyridin-5(4H)-yl)methanone] |
| 8.5 % control |  |  | 51.2 nM | 11100 nM |  | 89.1 nM |  |  |  |  | CC1c2nnn(-c3ncc[nH]3)c2CCN1C(=O)c1cccc(C(F)(F)F)c1Cl (stereo not drawn) [Example 393, (1-(1H-imidazol-2-yl)-4-methyl-6,7-dihydro-1H-[1,2,3]triazolo[4,5-c]pyridin-5(4H)-yl)(2-chloro-3-(trifluoromethyl)phenyl)methanone] |
|  |  |  |  |  |  |  | −4.0 % control | 70.8 nM | 36.3 nM | 158 nM | CC1c2n[nH]c(-c3ccc(F)cn3)c2CCN1C(=O)c1cccc(C(F)(F)F)c1Cl (stereo not drawn) [Example 430, (2-chloro-3-(trifluoromethyl)phenyl)(3-(5-fluoropyridin-2-yl)-7-methyl-4,5-dihydro-2H-pyrazolo[3,4-c]pyridin-6(7H)-yl)methanone] |
|  |  |  |  |  |  |  | −6.4 % control | 6 nM | 12.3 nM | 320 nM | CC1c2n[nH]c(-c3ncccn3)c2CCN1C(=O)c1cccc(Cl)c1Cl (stereo not drawn) [Example 431, (2,3-dichlorophenyl)(7-methyl-3-(pyrimidin-2-yl)-4,5-dihydro-2H-pyrazolo[3,4-c]pyridin-6(7H)-yl)methanone] |
|  |  |  |  |  |  |  | 3.1 % control | 43.5 nM | 47.9 nM | 432 nM | CC1c2n[nH]c(-c3ccc(F)cc3)c2CCN1C(=O)c1cccc(C(F)(F)F)c1Cl (stereo not drawn) [Example 434, (2-chloro-3-(trifluoromethyl)phenyl)(3-(4-fluorophenyl)-7-methyl-4,5-dihydro-2H-pyrazolo[3,4-c]pyridin-6(7H)-yl)methanone] |
|  |  |  |  |  |  |  | −11.7 % control | 240 nM | 144 nM | 14600 nM | CC1c2n[nH]c(-c3ccnn3C)c2CCN1C(=O)c1cccc(C(F)(F)F)c1Cl (stereo not drawn) [Example 437, (2-chloro-3-(trifluoromethyl)phenyl)(7-methyl-3-(1-methyl-1H-pyrazol-5-yl)-4,5-dihydro-2H-pyrazolo[3,4-c]pyridin-6(7H)-yl)methanone] |
